Source: ChEMBL document CHEMBL1926526, “Mefloquine-oxazolidine derivatives, derived from mefloquine and arenecarbaldehydes: In vitro activity including against the multidrug-resistant tuberculosis strain T113” (Bioorg Med Chem, 2012)

Tests used:
[1] = system: Mycobacterium tuberculosis; test: Antimycobacterial activity against Mycobacterium tuberculosis H37Rv ATCC 27294 by alamar blue assay; format: functional
[2] = system: Mycobacterium tuberculosis; test: Ratio of mefloquine MIC to compound MIC for Mycobacterium tuberculosis H37Rv ATCC 27294 by alamar blue assay; format: functional
[3] = Cytotoxicity against mouse macrophages assessed as cell viability at 100 uM after 18 hrs by MTT assay; format: cell-based, Macrophage; details: read-out: Activity
[4] = Cytotoxicity against mouse macrophages assessed as cell viability at 10 uM after 18 hrs by MTT assay; format: cell-based, Macrophage; details: read-out: Activity
[5] = Cytotoxicity against mouse macrophages assessed as cell viability at 1 uM after 18 hrs by MTT assay; format: cell-based, Macrophage; details: read-out: Activity

Compound | MIC [1] | Ratio [2] | viability at 18 h, 100 µM [3] | viability at 18 h, 10 µM [4] | viability at 18 h, 1 µM [5]
COc1cccc(C2O[C@@H](c3cc(C(F)(F)F)nc4c(C(F)(F)F)cccc34)[C@H]3CCCCN23)c1OC (mixture of isomers) | 11.9 µM | 2.8 | 100% | 100% | 100%
COc1cc(C2O[C@@H](c3cc(C(F)(F)F)nc4c(C(F)(F)F)cccc34)[C@H]3CCCCN23)cc(OC)c1OC (mixture of isomers) | 22.5 µM | – | 97% | 100% | 100%
FC(F)(F)c1cc([C@@H]2OC(c3ccc(Cl)cc3Cl)N3CCCC[C@H]23)c2cccc(C(F)(F)F)c2n1 (mixture of isomers) | > 250 µM | – | 98% | 100% | 100%
OC(c1cc(C(F)(F)F)nc2c(C(F)(F)F)cccc12)C1CCCCN1 (stereo not given) [MEFLOQUINE] | – | – | 70% | 81% | 95%
FC(F)(F)c1cc([C@@H]2OC(c3ccc(Cl)c(Cl)c3)N3CCCC[C@H]23)c2cccc(C(F)(F)F)c2n1 (mixture of isomers) | > 250 µM | – | 100% | 100% | 100%
FC(F)(F)c1cc([C@@H]2OC(c3ncc[nH]3)N3CCCC[C@H]23)c2cccc(C(F)(F)F)c2n1 (mixture of isomers) | 27.4 µM | – | 100% | 100% | 100%
CCOc1cccc(C2O[C@@H](c3cc(C(F)(F)F)nc4c(C(F)(F)F)cccc34)[C@H]3CCCCN23)c1 (mixture of isomers) | 24.5 µM | – | 95% | 100% | 100%
FC(F)(F)c1cc([C@@H]2OC(c3c(Cl)cccc3Cl)N3CCCC[C@H]23)c2cccc(C(F)(F)F)c2n1 (mixture of isomers) | > 250 µM | – | 59% | 92% | 93%
O=[N+]([O-])c1ccc(C2O[C@@H](c3cc(C(F)(F)F)nc4c(C(F)(F)F)cccc34)[C@H]3CCCCN23)s1 (mixture of isomers) | 12.1 µM | 2.7 | 100% | 100% | 100%
O=[N+]([O-])c1ccc(C2O[C@@H](c3cc(C(F)(F)F)nc4c(C(F)(F)F)cccc34)[C@H]3CCCCN23)o1 (mixture of isomers) | 99.8 µM | – | 100% | 100% | 100%
FC(F)(F)c1cc([C@@H]2OC(c3cccc(Cl)c3Cl)N3CCCC[C@H]23)c2cccc(C(F)(F)F)c2n1 (mixture of isomers) | > 250 µM | – | 100% | 100% | 100%
